Data: patent US20250197658A1, “ANTIOXIDANT STABILIZERS FOR DIRECT FABRICATION OF ORTHODONTIC APPLIANCES” (Align Technology, Inc., priority 2023, published 2025)

Experiment: Photoinitiator stability: concentrations in recovered resin composition after printing cycles
Type: physicochemical
Conditions: for change of concentration in recovered resin composition: with increasing printing cycles

concentration in recovered resin composition (1 printing cycle) | concentration in recovered resin composition (2 printing cycles) | concentration in recovered resin composition (4 printing cycles) | concentration in recovered resin composition (6 printing cycles) | change of concentration in recovered resin composition | Compound
0.0077 wt % | 0.0063 wt % | 0.0043 wt % | 0.0026 wt % | decreased | Vitamin E
0.98 wt % | 1 wt % | 0.98 wt % | 0.99 wt % | remained constant | Cc1cc(C)c(C(=O)P(=O)(C(=O)c2c(C)cc(C)cc2C)c2ccccc2)c(C)c1 [BAPO, phenylbis(2,4,6-trimethylbenzoyl) phosphine oxide]
